We go through 4 compounds from patent EP4559919A1, “TRICYCLIC-CONTAINING MACROCYCLIC COMPOUND AND USE THEREOF” (Medshine Discovery Inc., priority 2022, dated 2024).

Data set [1] is described as follows: Cell permeability test, MDCKII-MDR1 monolayer. The class given is in vitro ADME. Particulars: dog, MDCK-MDR1, pH 7.4. How it is done:
The permeability and efflux ratio of the test compounds were evaluated using the MDCKII-MDR1 monolayer cell test system to determine the potential of the compounds to cross the blood-brain barrier and to be effluxed by the P-gp transporter.
MDCKII-MDR1 cells (from the Netherlands Cancer Institute) were seeded into a 96-well cell plate (from Corning) at a cell density of 2.5 × 10^5 cells/mL and cultured for 7 days to form a confluent monolayer.
The apparent permeability coefficient (Papp, cm/s) was calculated using the following formula: Papp = (dCr / dt) × Vr /(A × C0). Herein, dCr/dt is the cumulative concentration of the compound at the receiving end per unit time (µM/s); Vr is the volume of the solution at the receiving end (the volumes of the solution at the apical and basal sides are 0.075 mL and 0.250 mL, respectively); A is the relative surface area of the cell monolayer (0.0804 cm^2); C0 is the initial concentration (nM) of the test compound at the dosing end or the peak area ratio of the control compound. The efflux ratio was calculated using the following formula: ER = Papp(BA) / Papp(AB). The recovery rate was calculated using the following formula: % Recovery = 100 × [(Vr × Cr)+(Vd × Cd)] /(Vd × C0). Herein, C0 is the initial concentration of the test compound at the dosing end (nM) or the peak area ratio of the control compound; Vd is the volume at the dosing end (0.075 mL for the apical side and 0.250 mL for the basal side); Cd and Cr are the final concentrations (nM) of the test compound at the dosing end and the receiving end or the peak area ratios of the control compound, respectively.

Data set [2] deals with Ba/F3-EML4-ALK-G1202R/L1196M. Kind of data set: Anti-proliferative activity test on Ba/F3 cell lines (CellTiter-Glo). The class given is cell-based. Particulars: for pIC50: Ba/F3 EML4-ALK-G1202R-L1196M, 72 hours, read-out: Half maximal inhibitory concentration IC50 for cells Ba/F3-EML4-ALK-G1202R/L1196 M. How it is done:
(§1) • (1) Cell culture: The cell lines were cultured in an incubator at 37°C with 5% CO2. Regular passaging was performed, and cells in the logarithmic growth phase were selected for plating; • (2) Preparation of compound storage plate: The test compounds were prepared into a 10 mM solution with DMSO (Stock Con.); The compounds were then prepared into a 1 mM solution with DMSO (Work Con.); 1 µL of the stock solution was mixed with 9 µL of DMSO to prepare a 10 µL work solution. • (3) Preparation of 1000× compound storage plate (tube): The compounds were 3-fold serially diluted from […] to the lowest concentration, for a total of 8 concentrations; • (4) Preparation of 20× compound working solution: 98 µL of cell culture medium was added to a flat-bottomed 96-well transparent drug plate. From the 1000× compound storage plate, 2 µL of the compound was pipetted into the cell culture medium in the 96-well transparent drug plate. In the solvent control, 2 µL of DMSO was added. After the compound or DMSO was added, the mixture was homogenized using a pipette. • (5) Cells were stained with trypan blue and viable cells were counted to ensure a cell viability of 90% or more. The cell concentration was adjusted to an appropriate concentration; • (6) 95 µL of cell suspension (2000 cells/well) was added to each well of the compound assay cell plate, and cell-free culture medium containing 0.1% DMSO was added to the Min control wells; • (7) Administration in the compound assay cell plate: 5 µL of 20× compound working solution was added to the cell culture plate, 5 µL of DMSO-cell culture medium mixture was added to the Max control wells, and the final concentration of DMSO was 0.1%; • (8) The culture plate was then incubated in an incubator at 37°C with 5% CO2 for 72 hours; • (9) The following operations were conducted in accordance with the instructions of the Promega CellTiter-Glo Luminescent Cell Viability Assay Kit (Promega-G7573): CellTiter-Glo buffer was thawed and brought to room temperature; CellTiter-Glo substrate was brought to room temperature; CellTiter-Glo buffer was added to a bottle of CellTiter-Glo substrate to dissolve the substrate, thereby preparing CellTiter-Glo working solution; The mixture was slowly vortexed and shaken to be fully dissolved; The cell culture plate was removed and allowed to equilibrate to room temperature for 10 minutes; 50 µL (equal to half the volume of cell culture medium in each well) of CellTiter-Glo working solution was added to each well; The culture plate was shaken on an orbital shaker for 2 minutes to induce cell lysis; The plate was then left at room temperature for 10 minutes to stabilize the luminescent signal; The luminescent signal was detected using a SpectraMax Paradigm plate reader; Cell viability assay was conducted using CellTiter-Glo luminescence method.
(§2) Data analysis: The corresponding […] value (RLU) for each well was obtained from SpectraMax Paradigm readings. […] The inhibition rates corresponding to compounds at different concentrations were calculated in Excel, and the inhibition rate curves were plotted using GraphPad Prism software to calculate relevant parameters, including the maximum and minimum inhibition rates of the cells and the IC50 value.
(In general: Cellular ATP, detected with luciferase, serves as a proxy for viable cell number.)

Another data set deals with Ba/F3-TEL-TRKB. The description is as above. The format is cell-based. Particulars: Mus musculus, BaF3; 72 hours; read-out: Half maximal inhibitory concentration IC50 for cells Ba/F3-TEL-TRKB. The method, then: as §1, §2
The next data set concerns the target T1, ALK(G1202R/L1196M) (Homo sapiens, UniProt Q9UM73, G1202R/L1196M).
T1 construct: purchased Carna
The data set is described as follows: In vitro kinase inhibitory activity assay, Experimental method 2 (ADP-Glo). The format is biochemical. The note with it: Experimental method 2; ATP 5.0 µM, substrate IGF1; read-out: Kinase half maximal inhibitory concentration IC50 ALK^G1202R/L1196M. The method, then: (§3) The kinase inhibitory activity assays of the compounds against ALK, ALK^L1196M, ALK^G1202R, ALK^G1202R/L1196M, ROS1, and TRKB were conducted at Wuhan Heyan Biotechnology Co., Ltd. or Hefei PreceDo Biotechnology Co., Ltd.
(§4) Experimental materials: ALK (G1202R/L1196M) Active and TRKB were purchased from Carna; IGF1 was purchased from GenScript; PolyE4Y1 was purchased from SIGMA; ADP-Glo™ Reagent was purchased from Promega; ATP was purchased from Promega; Kinase Detection Reagent was purchased from Promega; microplate reader ( PerkinElmer).
Reaction system: ALK(G1202R/L1196M) reaction concentration 8.63 nM, ATP concentration 5.0 µM, substrate IGF1 concentration 0.2 µg/µL. ALK(G1202R/L1196M) kinase buffer was 40 mM Tris-HCl (pH 7.5) + 20 mM magnesium chloride + 0.1 mg/mL BSA + 50 µM DTT.
(§5) ALK(G1202R/L1196M) and TRKB detection method: 2 µL of kinase and 1 µL of compound were added to a 384-well plate; 2 µL of substrate/ATP mixture was added and incubated at room temperature in the dark for 60 minutes; 5 µL of ADP-Glo™ reagent was added and incubated at room temperature for 40 minutes; 10 µL of kinase detection reagent was added and incubated at room temperature for 30 minutes; the plate was read on a microplate reader, and luminescence was recorded (integration time set to 0.5 seconds).
(§6) The IC50 value could then be derived by performing a curve fit using a four-parameter logistic model (obtained using the "log(inhibitor) vs. response -- Variable slope" mode in GraphPad Prism).
In general terms: In ADP-Glo the light output rises with the ADP produced.

A further data set concerns the target T2, TRKB (Homo sapiens, UniProt Q16620).
T2 construct: purchased Carna
Described as above. The format is biochemical. Particulars: Experimental method 2; ATP 5.0 µM, substrate PolyE4Y1; read-out: Kinase half maximal inhibitory concentration IC50 TRKB. The method, then: as §3, §4
TRKB reaction concentration 4.47 nM, ATP concentration 5.0 µM, substrate PolyE4Y1 concentration 0.2 µg/µL. TRKB kinase buffer was 40 mM Tris-HCl (pH 7.5) + 20 mM magnesium chloride + 2.5 mM manganese chloride + 0.1mg/mL BSA+ 50 µM DTT.
as §5, §6

For a further data set, the target named is T3, CYP2C9 (Homo sapiens, UniProt P11712).
T3 construct: Mixed human liver microsomes (HLM) purchased from Corning Inc; tissue Corning Inc; host or cells: pooled human liver microsomes
The data set is described as follows: Cytochrome P450 isozyme inhibitory activity test (human liver microsomes). The format is in vitro ADME. The note with it: human liver microsomes 0.1 mg/mL; probe substrate Diclofenac. How it is done: To test the inhibitory activity of the compounds of the present disclosure on different subtypes of human liver microsomal cytochrome P450 isozymes.
Mixed human liver microsomes (HLM) purchased from Corning Inc. (Steuben, New York, USA); Diclofenac as the probe substrate (10 µM); Sulfaphenazole as the positive control inhibitor; 4'-Hydroxydiclofenac as the metabolite
Preparation of test system working solution: Human liver microsomes (HLM): HLM stock solution at 20.0 mg/mL, working solution at 0.2 mg/mL, final concentration at 0.1 mg/mL; Potassium phosphate buffer: 100 mM; Cofactor working solution: Magnesium chloride, NADP (nicotinamide adenine dinucleotide phosphate), G6P (glucose-6-phosphate), G6PDH (glucose-6-phosphate dehydrogenase), and phosphate buffer or magnesium chloride, NADPH (reduced nicotinamide adenine dinucleotide phosphate) powder, and potassium phosphate buffer; prepared into cofactor working solution at appropriate ratios;
Stop solution: Isotope-labeled 4'-hydroxydiclofenac-d4 stock solution prepared in methanol, then prepared into stop solution using acetonitrile.
In the substrate-free control sample wells of the reaction plate, 100 µL of a mixture of human liver microsome and potassium phosphate buffer was added. At the zero-time point sample wells, 98 µL of a mixture of the human liver microsome and potassium phosphate buffer was added. In the no-inhibitor control (NIC), test compound, and positive control inhibitor sample wells of the reaction plate, 100 µL of a mixture of the human liver microsome and substrate was added. From the dilution plate, 2 µL of blank solvent, test compound working solution (three parallels), and positive control inhibitor working solution (two parallels) were added to the reaction plate. The reaction plate was preheated at 37.0°C for 10 minutes. […] The concentration of specific metabolites in the samples was detected using the liquid chromatography-tandem mass spectrometry (LC-MS/MS) method. […] The IC50 values were calculated using a three-parameter or four-parameter inverse log equation.
(Liver microsomes are vesicles of endoplasmic reticulum, rich in cytochrome P450 enzymes.)

The target in another data set is T4, CYP3A4-M (Homo sapiens, UniProt P08684).
T4 construct: Mixed human liver microsomes (HLM) purchased from Corning Inc; tissue Corning Inc; host or cells: pooled human liver microsomes
Described as above. The format is in vitro ADME. The note with it: human liver microsomes 0.1 mg/mL.

A short description of data set [3]: In vivo pharmacokinetic testing in mice. On the set-up: species or system male CD-1 mice. The note with it: mouse, IV, 0.5 mg/kg, plasma.
Procedure: The objective was to study the pharmacokinetic behavior of the compounds of the present disclosure in mice, using male CD-1 mice aged 7 to 9 weeks as test animals. The concentrations of the compounds in plasma at different time points after a single intravenous injection (IV) and oral gavage (PO) administration of the compound were determined using LC/MS/MS.
Two groups of healthy mice (fasted) were administered the compounds via intravenous injection (IV) and oral gavage (PO), with 2 mice in each group.
The test compounds were mixed with the solvent, vortexed, and sonicated to prepare a clear solution with a concentration of 0.5 mg/mL and a pH of 3.3-3.6. The intravenous injection dose for the mice was 1.0 mg/kg. […] The test compounds were mixed with the solvent, vortexed, and sonicated to prepare a homogeneous suspension with particles at a concentration of 0.5 mg/mL and a pH of 6.8-7.0. The oral gavage dose for the mice was 5.0 mg/kg.
The test compound was mixed with the solvent, vortexed, and sonicated to prepare a clear solution with a concentration of 1.0 mg/mL. The intravenous injection dose for the mice was 1.0 mg/kg. […] The test compound was mixed with the solvent, vortexed, and sonicated to prepare a homogeneous suspension with particles at a concentration of 0.5 mg/mL. The oral gavage dose for the mice was 5.0 mg/kg.
The test compounds were mixed with the solvent, vortexed, and sonicated to prepare a clear solution with a concentration of 0.1 mg/mL. The intravenous injection dose for the mice was 0.5 mg/kg. […] The test compound was mixed with the solvent, vortexed, and sonicated to prepare a homogeneous suspension with particles at a concentration of 0.5 mg/mL and a pH of 7.08. The oral gavage dose for the mice was 5.0 mg/kg. After administration, the whole blood was collected at the time points of 0.083 hours, 0.25 hours, 0.5 hours, 1.0 hour, 2.0 hours, 4.0 hours, 8.0 hours, 12.0 hours, and 24.0 hours. Plasma was prepared from the whole blood and analyzed for drug concentration by LC-MS/MS. The pharmacokinetic parameters were calculated using Phoenix WinNonlin 6.3.

pIC50: −log10 of the molar value.

T2 sequence (Q16620 32-822): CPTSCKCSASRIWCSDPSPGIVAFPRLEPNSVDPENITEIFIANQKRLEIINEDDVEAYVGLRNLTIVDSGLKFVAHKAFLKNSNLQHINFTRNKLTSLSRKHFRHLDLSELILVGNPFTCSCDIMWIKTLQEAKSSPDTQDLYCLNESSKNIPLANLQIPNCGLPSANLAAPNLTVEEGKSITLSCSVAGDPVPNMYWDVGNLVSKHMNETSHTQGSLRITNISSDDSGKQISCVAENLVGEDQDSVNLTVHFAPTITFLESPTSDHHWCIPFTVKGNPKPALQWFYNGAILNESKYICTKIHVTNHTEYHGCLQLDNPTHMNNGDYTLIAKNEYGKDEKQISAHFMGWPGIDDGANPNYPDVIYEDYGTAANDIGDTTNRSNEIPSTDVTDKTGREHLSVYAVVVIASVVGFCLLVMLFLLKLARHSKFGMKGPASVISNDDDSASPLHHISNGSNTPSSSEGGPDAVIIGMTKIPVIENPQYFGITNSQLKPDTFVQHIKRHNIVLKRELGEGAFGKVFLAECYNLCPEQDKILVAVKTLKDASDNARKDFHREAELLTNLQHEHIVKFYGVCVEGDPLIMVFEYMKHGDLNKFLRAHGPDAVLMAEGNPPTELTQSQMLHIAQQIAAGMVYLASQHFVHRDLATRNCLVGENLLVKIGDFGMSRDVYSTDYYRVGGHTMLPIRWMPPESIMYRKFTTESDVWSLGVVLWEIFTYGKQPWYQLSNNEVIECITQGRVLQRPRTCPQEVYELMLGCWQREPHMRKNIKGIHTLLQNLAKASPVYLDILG
T1 sequence (Q9UM73 19-1620 L1196M/G1202R): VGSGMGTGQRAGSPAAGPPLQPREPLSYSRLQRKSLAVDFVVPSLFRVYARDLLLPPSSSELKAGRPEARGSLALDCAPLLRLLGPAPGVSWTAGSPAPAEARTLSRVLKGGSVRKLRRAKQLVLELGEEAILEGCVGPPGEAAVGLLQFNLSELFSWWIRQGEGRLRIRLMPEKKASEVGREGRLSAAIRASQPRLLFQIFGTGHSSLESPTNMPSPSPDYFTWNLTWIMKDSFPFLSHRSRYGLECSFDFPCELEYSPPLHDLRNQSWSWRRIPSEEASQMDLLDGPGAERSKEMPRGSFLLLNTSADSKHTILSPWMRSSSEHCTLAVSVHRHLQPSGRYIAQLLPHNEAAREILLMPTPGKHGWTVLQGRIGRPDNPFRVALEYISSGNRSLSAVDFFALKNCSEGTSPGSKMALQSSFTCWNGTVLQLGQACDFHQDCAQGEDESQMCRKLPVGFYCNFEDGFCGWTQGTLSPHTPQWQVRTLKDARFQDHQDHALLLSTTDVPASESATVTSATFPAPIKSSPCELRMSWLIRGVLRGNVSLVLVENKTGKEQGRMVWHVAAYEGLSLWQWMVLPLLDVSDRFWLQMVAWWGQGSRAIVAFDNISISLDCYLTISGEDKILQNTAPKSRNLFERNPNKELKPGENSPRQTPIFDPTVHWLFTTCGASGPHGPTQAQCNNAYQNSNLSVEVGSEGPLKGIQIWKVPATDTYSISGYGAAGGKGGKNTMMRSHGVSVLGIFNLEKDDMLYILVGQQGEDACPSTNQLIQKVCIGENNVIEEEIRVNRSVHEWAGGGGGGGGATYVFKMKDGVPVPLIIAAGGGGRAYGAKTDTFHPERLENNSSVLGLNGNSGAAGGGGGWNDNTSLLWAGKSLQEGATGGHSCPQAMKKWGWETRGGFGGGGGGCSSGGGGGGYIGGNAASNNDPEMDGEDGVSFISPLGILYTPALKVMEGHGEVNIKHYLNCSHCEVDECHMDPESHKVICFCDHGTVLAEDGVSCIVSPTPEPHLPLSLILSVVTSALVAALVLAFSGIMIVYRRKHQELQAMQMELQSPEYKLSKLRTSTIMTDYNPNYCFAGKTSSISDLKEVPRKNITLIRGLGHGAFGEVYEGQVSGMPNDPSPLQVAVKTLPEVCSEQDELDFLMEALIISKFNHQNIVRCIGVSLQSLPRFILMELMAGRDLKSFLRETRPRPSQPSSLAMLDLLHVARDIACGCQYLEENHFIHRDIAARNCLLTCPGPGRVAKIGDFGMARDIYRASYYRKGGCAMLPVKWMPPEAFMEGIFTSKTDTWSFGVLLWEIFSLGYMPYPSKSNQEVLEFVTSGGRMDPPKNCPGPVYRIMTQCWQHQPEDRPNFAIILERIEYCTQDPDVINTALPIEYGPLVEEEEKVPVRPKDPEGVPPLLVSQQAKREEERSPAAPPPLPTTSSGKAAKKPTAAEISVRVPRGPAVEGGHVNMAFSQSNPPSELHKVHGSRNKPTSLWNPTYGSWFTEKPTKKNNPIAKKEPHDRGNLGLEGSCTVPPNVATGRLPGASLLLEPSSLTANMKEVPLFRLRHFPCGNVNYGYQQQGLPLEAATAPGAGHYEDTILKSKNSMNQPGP
T4 sequence (P08684 whole entry): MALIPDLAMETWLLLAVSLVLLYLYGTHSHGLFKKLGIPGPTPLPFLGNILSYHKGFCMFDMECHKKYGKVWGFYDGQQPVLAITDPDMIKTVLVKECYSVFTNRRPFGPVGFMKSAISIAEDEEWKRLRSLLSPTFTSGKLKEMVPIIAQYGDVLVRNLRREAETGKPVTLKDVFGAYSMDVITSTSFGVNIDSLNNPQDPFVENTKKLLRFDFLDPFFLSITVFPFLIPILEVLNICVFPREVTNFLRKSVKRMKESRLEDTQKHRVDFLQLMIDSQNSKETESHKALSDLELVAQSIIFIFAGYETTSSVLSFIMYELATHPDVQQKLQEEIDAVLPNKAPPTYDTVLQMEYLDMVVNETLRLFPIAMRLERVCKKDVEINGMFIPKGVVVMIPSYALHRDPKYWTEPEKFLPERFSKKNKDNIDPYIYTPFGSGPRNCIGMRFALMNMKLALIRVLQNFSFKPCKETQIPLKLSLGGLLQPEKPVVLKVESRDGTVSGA
T3 sequence (P11712 whole entry): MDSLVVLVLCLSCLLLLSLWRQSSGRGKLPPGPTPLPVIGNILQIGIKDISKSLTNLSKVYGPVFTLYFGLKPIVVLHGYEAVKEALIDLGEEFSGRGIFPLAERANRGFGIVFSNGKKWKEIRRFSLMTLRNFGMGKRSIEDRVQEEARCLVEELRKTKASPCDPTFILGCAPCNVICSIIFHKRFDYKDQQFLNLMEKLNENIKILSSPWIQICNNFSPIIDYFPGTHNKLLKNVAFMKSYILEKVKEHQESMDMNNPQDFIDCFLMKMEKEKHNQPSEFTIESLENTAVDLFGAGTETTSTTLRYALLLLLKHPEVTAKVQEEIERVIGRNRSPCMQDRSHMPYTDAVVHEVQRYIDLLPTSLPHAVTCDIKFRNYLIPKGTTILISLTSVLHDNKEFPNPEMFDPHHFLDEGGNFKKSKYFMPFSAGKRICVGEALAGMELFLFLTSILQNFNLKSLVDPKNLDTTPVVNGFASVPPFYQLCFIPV

For the compound `CC1(C)COc2ncc(F)cc2CN2c3nc4c(cc3OC[C@H]2C(F)F)ncn4C(=O)N1` [Compound 013], the efflux ratio at 2.5 h, 2 µM in data set [1] is 0.77. In data set [1] (2 µM, 150 minutes, pH 7.40), the Papp A→B at 2.5 h, 2 µM is 11.8 ×10⁻⁶ cm/s and the Papp B→A at 2.5 h, 2 µM came to 9.02 ×10⁻⁶ cm/s. The pIC50 in data set [2] is 8.92. Further, the pIC50 with Ba/F3-TEL-TRKB is 9.52.
Consider `N#Cc1nn2cc3c4nc2c1C(=O)NC1(CCC1)COc1ccc(F)cc1CN4[C@H](C(F)F)CO3` [Compound 022], for which the pIC50 at ALK(G1202R/L1196M) is 8.11; on TRKB, 7.61; in data set [2], 8.38; in the data set on Ba/F3-TEL-TRKB, 8.64; on CYP2C9, 6.34; at CYP3A4-M, below 4.30.
For the compound `C#Cc1nn2cc3c4nc2c1C(=O)NC(C)(C)COc1ccc(F)cc1CN4[C@H](C(F)F)CO3` [Compound 019], the pIC50 at ALK(G1202R/L1196M) was 9.05; on TRKB it was 8.60; in data set [2], 8.77; in the data set with Ba/F3-TEL-TRKB, 8.46. In data set [2] (stronger inhibition of ALK-mutant cells, relatively weaker of TRKB phenotypic cells), the “selectivity: inhibition against ALK-mutant cells versus TRKB phenotypic cells” value was “excellent selectivity”. In data set [3] (read-out: Apparent volume of distribution Vd), the Vd was 0.274 L/kg. Also, the AUC(0-t) in data set [3] (read-out: Area under the curve AUC0-last) was determined as 15.2 µM·h. For the same compound, the half-life in data set [3] (read-out: Half-life T1/2 (converted)) was 1.28 h.
Take `N#Cc1nn2cc3c4nc2c1C(=O)N[C@H]1C[C@H](C1)Oc1ccc(F)cc1CN4[C@H](C(F)F)CO3` [Compound 024]: the pIC50 was 8.64 at ALK(G1202R/L1196M); 8.28 at TRKB; 8.80 in data set [2]; 9.10 with Ba/F3-TEL-TRKB; 5.67 against CYP2C9; below 4.30 against CYP3A4-M.

In general, efflux ratio refers to a quotient of directional permeabilities that is used to spot active efflux. As usually defined, the Papp A→B is how fast a substance crosses the layer from the apical side. Low readings indicate slow passage, high ones fast passage. For orientation: Papp B→A means how fast a substance crosses the layer from the basolateral side.
